Source: ChEMBL document CHEMBL1130374, “Resolution and biological activities of optical isomers of 1,4-diethyl-3,6-epidithiopiperazine-2,5-dione” (1997)
pEC50: −log10 of the molar value.

Experiments:
Mus musculus [1] = species: Mus musculus; experiment: The extent of apoptosis was determined by evaluating the subdiploid population of propidium iodide stained cells using flow cytometry after 9 hr using thymocytes from mice; assay type: functional, Thymocyte
Mus musculus [2] = species: Mus musculus; experiment: Compound was evaluated for macrophage adherence in thioglycolate induced mouse macrophages; assay type: functional; conditions: read-out: ED50 (the source's name)
P815 = experiment: Compound was evaluated for Thymidine incorporation in P815 cell lines; assay type: functional; conditions: Mus musculus, read-out: ED50 (the source's name)
[3] = molecular target: Creatine kinase M-type (Oryctolagus cuniculus) (UniProt P00563); experiment: Compound was evaluated for interaction with the creatine kinase in rabbit muscle after 6 hr; set-up: reference not given here
Creatine kinase M-type (Oryctolagus cuniculus), sequence (P00563 whole entry, looked up): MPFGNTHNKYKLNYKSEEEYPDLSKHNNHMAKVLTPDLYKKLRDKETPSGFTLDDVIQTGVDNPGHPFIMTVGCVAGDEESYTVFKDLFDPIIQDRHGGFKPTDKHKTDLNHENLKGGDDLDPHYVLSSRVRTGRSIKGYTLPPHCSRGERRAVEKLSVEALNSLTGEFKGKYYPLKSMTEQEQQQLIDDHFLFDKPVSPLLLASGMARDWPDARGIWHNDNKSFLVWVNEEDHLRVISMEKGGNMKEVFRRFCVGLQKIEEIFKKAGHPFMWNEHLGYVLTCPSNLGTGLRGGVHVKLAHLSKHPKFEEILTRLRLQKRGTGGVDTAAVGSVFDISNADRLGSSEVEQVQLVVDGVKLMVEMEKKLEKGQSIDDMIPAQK

Row | pEC50 (Mus musculus [2]) | pEC50 (P815) | Activity [3] | SMILES | Activity (Mus musculus [1])
1 | 5.30 | 4.30 | 34% | CCN1C(=O)[C@H]2SS[C@@H]1C(=O)N2CC | 53%
2 | 5.10 | 4.26 | 34% | CCN1C(=O)[C@@H]2SS[C@H]1C(=O)N2CC | 57%
3 | 5.60 | 4.46 | 35% | CCN1C(=O)C2SSC1C(=O)N2CC (racemic) | 54%

Row | SMILES | pEC50 (Mus musculus [2]) | pEC50 (P815) | Activity [3] | Activity (Mus musculus [1])
4 | CN1C(=O)[C@]23CC4=CC=C[C@H](O)[C@H]4N2C(=O)[C@@]1(CO)SS3 [GLIOTOXIN] | 6.46 | 5.70 | 32% | 59%
